The source of these data is PubChem BioAssay AID328 (DTP/NCI, 2004).

“And” between values parts separate entries of the source, which are not always exact repeats. Equal entries are not always repeated. Toxic doses and inconclusive results are not listed.

This test deals with BDF1 mice, P388 leukemia ip, median survival T/C. Nature of the test: NCI In Vivo Anticancer Drug Screen. Data for tumor model P388 Leukemia (intraperitoneal) in B6D2F1 (BDF1) mice. Conditions: endpoint: median survival time, higher = longer survival. Put shortly:
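Each value expresses how treatment altered survival: treated-mouse outcome over vehicle-mouse outcome, both groups bearing the transplanted tumour.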

Setting [1] is: dose: 100.0 mg/kg/injection, schedule: Q01DX009 (ip), vehicle: saline with Tween-80.
The mark [2] stands for this setting: dose: 200.0 mg/kg/injection, schedule: Q01DX009 (ip), vehicle: saline with Tween-80.
Setting [3] is: dose: 400.0 mg/kg/injection, schedule: Q01DX009 (ip), vehicle: saline with Tween-80.
The mark [4] stands for this setting: dose: 25.0 mg/kg/injection, schedule: Q01DX009 (ip), vehicle: saline.
Setting [5] is: dose: 50.0 mg/kg/injection, schedule: Q01DX009 (ip), vehicle: saline.
[6] abbreviates: dose: 100.0 mg/kg/injection, schedule: Q01DX009 (ip), vehicle: saline.
[7] abbreviates: dose: 200.0 mg/kg/injection, schedule: Q01DX009 (ip), vehicle: saline.
Where [8] appears, read: dose: 100.0 mg/kg/injection, schedule: Q04DX003 (ip), vehicle: saline with Tween-80.
Setting [9] is: dose: 200.0 mg/kg/injection, schedule: Q04DX003 (ip), vehicle: saline with Tween-80.
Where [10] appears, read: dose: 400.0 mg/kg/injection, schedule: Q04DX003 (ip), vehicle: saline with Tween-80.
[11] abbreviates: dose: 50.0 mg/kg/injection, schedule: Q01DX009 (ip), vehicle: saline with Tween-80.
Where [12] appears, read: dose: 100.0 mg/kg/injection, schedule: Q04DX003 (ip), vehicle: Klucel (hydroxypropylcellulose) (HPC).
Where [13] appears, read: dose: 200.0 mg/kg/injection, schedule: Q04DX003 (ip), vehicle: Klucel (hydroxypropylcellulose) (HPC).

For the compound `O=C(O)CCCOc1cc(Cl)c(Cl)cc1Cl`, the T/C by setting is: (dose: 50.0 mg/kg/injection, schedule: Q01DX009 (ip), vehicle: gum acacia) 107 % of control; (dose: 50.0 mg/kg/injection, schedule: Q04DX003 (ip), vehicle: gum acacia) 100 % of control; (dose: 100.0 mg/kg/injection, schedule: Q01DX009 (ip), vehicle: gum acacia) 107 % of control; (dose: 100.0 mg/kg/injection, schedule: Q04DX003 (ip), vehicle: gum acacia) 104 % of control; (dose: 200.0 mg/kg/injection, schedule: Q01DX009 (ip), vehicle: gum acacia) 107 % of control; (dose: 200.0 mg/kg/injection, schedule: Q04DX003 (ip), vehicle: gum acacia) 122 % of control.
With `CCCCCCCCCCCCCCCCOc1ccccc1CNc1cc(C(F)(F)F)ccc1Cl`, the T/C (dose: 100.0 mg/kg/injection, schedule: Q01DX009 (ip), vehicle: other) was 90 % of control; the T/C (dose: 200.0 mg/kg/injection, schedule: Q01DX009 (ip), vehicle: other) is 100 % of control; the T/C (dose: 400.0 mg/kg/injection, schedule: Q01DX009 (ip), vehicle: other) is 105 % of control.
Turning to `CCCC(O)C(NC(=O)CCl)C(=O)O` (configuration not stated), the T/C reads like this: (dose: 125.0 mg/kg/injection, schedule: Q01DX005 (ip), vehicle: other) 104 % of control; (dose: 250.0 mg/kg/injection, schedule: Q01DX005 (ip), vehicle: other) 104 % of control.
Regarding `CC1(C)CCC2(C)CC=C3OC(=O)CCC3(C)C2C1` (configuration not stated), the T/C under setting [1] is 118 % of control; the T/C (dose: 100.0 mg/kg/injection, schedule: Q04DX003 (ip), vehicle: saline sonified) is 100 % of control; the T/C under setting [2] was 100 % of control; the T/C (dose: 200.0 mg/kg/injection, schedule: Q04DX003 (ip), vehicle: saline sonified) is 100 % of control; the T/C under setting [3] is 109 % of control; the T/C (dose: 400.0 mg/kg/injection, schedule: Q04DX003 (ip), vehicle: saline sonified) is 95 % of control.
`COc1cc(C(=O)N(C)C)cc(OC)c1OC`: the T/C reads like this: under setting [4], 112 % of control; under setting [5], 98 % of control; under setting [6], 98 % of control; under setting [7], 101 % of control.
As for `c1ccc2c3c(ccc2c1)Sc1ccc2ccccc2c1N3`, the T/C by setting is: under setting [1], 90 % of control; under setting [8], 104 % of control; under setting [2], 90 % of control; under setting [9], 90 % of control; under setting [3], 90 % of control; under setting [10], 90 % of control.
Take `COC1=C(OC)C(=O)C2=C(OCCO2)C1=O`: the T/C (dose: 100.0 mg/kg/injection, schedule: Q01DX001 (ip), vehicle: saline with Tween-80) is 104 % of control.
With `CCOc1ccc(NC(=O)OCCN2CCN(CCc3ccccc3)C(C)C2)cc1` (configuration not stated), the T/C reads like this: under setting [11], 94 % of control; under setting [1], 98 % of control.
As to `O=C1C(Br)=Cc2cccc3cccc1c23`, the T/C reads like this: (dose: 25.0 mg/kg/injection, schedule: Q01DX009 (ip), vehicle: saline with Tween-80) 111 % of control; under setting [11], 105 % of control; under setting [1], 107 % of control; under setting [8], 95 % of control; under setting [2], 230 % of control and 107 % of control; under setting [9], 104 % of control. Also, the T/C by setting is: under setting [3], 100 % of control; under setting [10], 104 % of control.
Consider `COc1cc2c(cc1OC)C(=O)CN(S(=O)(=O)c1ccc(C)cc1)CC2`, for which the T/C by setting is: under setting [4], 95 % of control; under setting [5], 104 % of control; under setting [6], 104 % of control; under setting [12], 100 % of control; under setting [13], 95 % of control; (dose: 400.0 mg/kg/injection, schedule: Q04DX003 (ip), vehicle: Klucel (hydroxypropylcellulose) (HPC)) 95 % of control.
For `CCCCCCCCCCCCCCSC(CC(=O)O)C(=O)NNC(N)=S` (configuration not stated), the T/C is, setting by setting: (dose: 87.5 mg/kg/injection, schedule: Q01DX009 (ip), vehicle: saline with Tween-80) 101 % of control; (dose: 175.0 mg/kg/injection, schedule: Q01DX009 (ip), vehicle: saline with Tween-80) 101 % of control; (dose: 350.0 mg/kg/injection, schedule: Q01DX009 (ip), vehicle: saline with Tween-80) 113 % of control.
For the compound `COCCCNC1=C(C#N)C(=O)NC(c2cccs2)S1` (configuration not stated), the T/C reads like this: under setting [11], 100 % of control; under setting [1], 117 % of control; under setting [2], 121 % of control.
On to `O=C(c1ccccc1)N1CC1`, for which the T/C was 101 % of control (dose: 25.0 mg/kg/injection, schedule: Q01DX009 (ip), vehicle: water); 115 % of control (dose: 25.0 mg/kg/injection, schedule: Q04DX003 (ip), vehicle: water); 92 % of control (dose: 50.0 mg/kg/injection, schedule: Q04DX003 (ip), vehicle: water); 100 % of control (dose: 100.0 mg/kg/injection, schedule: Q04DX003 (ip), vehicle: water); 109 % of control (dose: 200.0 mg/kg/injection, schedule: Q04DX003 (ip), vehicle: water); 112 % of control (dose: 400.0 mg/kg/injection, schedule: Q01DX009 (ip), vehicle: water). For the setting “dose: 400.0 mg/kg/injection, schedule: Q04DX003 (ip), vehicle: water”, the T/C was 115 % of control.
As to `Cc1cc(=O)n(Cc2ccccc2)c(O)c1C`, the T/C is 102 % of control under setting [12] and 94 % of control under setting [13].
`COc1cccc(/C=N\O)c1`: the T/C is 104 % of control under setting [8], 100 % of control under setting [9] and 104 % of control under setting [10].
`CCC1COC(CC)N1` (configuration not stated): the T/C by setting is: (dose: 50.0 mg/kg/injection, schedule: Q01DX005 (ip), vehicle: saline with Tween-80) 103 % of control; (dose: 100.0 mg/kg/injection, schedule: Q01DX005 (ip), vehicle: saline with Tween-80) 110 % of control; (dose: 200.0 mg/kg/injection, schedule: Q01DX005 (ip), vehicle: saline with Tween-80) 120 % of control.
Regarding `Nc1c(C(=O)O)cccc1C(=O)O`, the T/C was 104 % of control under setting [1]; 100 % of control under setting [8]; 109 % of control under setting [2]; 100 % of control under setting [9]; 113 % of control under setting [3]; 95 % of control under setting [10].
As for `c1cc[n+](CCSCCSCC[n+]2ccccc2)cc1`, the T/C reads like this: (dose: 1.56 mg/kg/injection, schedule: Q01DX009 (ip), vehicle: saline) 120 % of control; (dose: 2.3 mg/kg/injection, schedule: Q04DX003 (ip), vehicle: saline) 122 % of control; (dose: 3.0 mg/kg/injection, schedule: Q04DX003 (ip), vehicle: saline) 104 % of control and 113 % of control; (dose: 3.12 mg/kg/injection, schedule: Q01DX009 (ip), vehicle: saline) 105 % of control; (dose: 4.6 mg/kg/injection, schedule: Q04DX003 (ip), vehicle: saline) 100 % of control and 109 % of control; (dose: 6.25 mg/kg/injection, schedule: Q01DX009 (ip), vehicle: saline) 105 % of control. The T/C reads like this: (dose: 6.9 mg/kg/injection, schedule: Q04DX003 (ip), vehicle: saline) 109 % of control; (dose: 9.2 mg/kg/injection, schedule: Q01DX009 (ip), vehicle: saline) 88 % of control; (dose: 9.2 mg/kg/injection, schedule: Q04DX003 (ip), vehicle: saline) 100 % of control; (dose: 13.0 mg/kg/injection, schedule: Q04DX003 (ip), vehicle: saline) 100 % of control.
As to `N#Cc1cnccn1`, the T/C by setting is: under setting [6], 100 % of control; under setting [7], 100 % of control; (dose: 400.0 mg/kg/injection, schedule: Q01DX009 (ip), vehicle: saline) 87 % of control.
`N=C1C=C[C@]2(O)C[C@H](Cl)CN12`: the T/C by setting is: (dose: 0.38 mg/kg/injection, schedule: Q01DX009 (ip), vehicle: saline) 104 % of control; (dose: 0.75 mg/kg/injection, schedule: Q01DX009 (ip), vehicle: saline) 104 % of control; (dose: 1.5 mg/kg/injection, schedule: Q01DX009 (ip), vehicle: saline) 114 % of control; (dose: 3.0 mg/kg/injection, schedule: Q01DX009 (ip), vehicle: saline) 98 % of control; (dose: 6.0 mg/kg/injection, schedule: Q01DX009 (ip), vehicle: saline) 117 % of control.
Consider `Cc1ccc(NC(=O)c2ccccc2Cl)c(C)c1`, for which the T/C reads like this: under setting [8], 100 % of control; under setting [9], 100 % of control; under setting [10], 109 % of control.
